Assay results reported in patent US20130066264A1, “SUGAR-RESPONSIVE GEL AND MEDICINE ADMINISTERING DEVICE” (NATIONAL INSTITUTE FOR MATERIALS SCIENCE, priority 2010, published 2013).

Conditions: acid-base titration, FIG. 2
Source text: Next, for the sample 1, the comparative sample 1 and the comparative sample 2, the relationships between glucose concentrations and apparent changes in pKa were derived by acid-base titration in the conditions of various glucose concentrations (0 g/L, 1 g/L, 3 g/L, 5 g/L and g/L).

SMILES: C=CC(=O)NCCNC(=O)c1ccc(B(O)O)cc1F [sample 1, 4-(2-acrylamideethylcarbamoyl)-3-fluorophenylboronic acid]
- apparent pKa (glucose 0 g/L, 1 g/L, 3 g/L, 5 g/L and g/L (samples a1 to a5)): < 7.4
- degree of decrease in pKa according to the increase in concentration of glucose, versus comparative samples 1 and 2 (various glucose concentrations): remarkably superior
